Target: T1, truncated CsrD, EAL domain only (E. amylovora Ea1189) (Erwinia amylovora, UniProt A0ABX7MI01)
T1 sequence (A0ABX7MI01 403-633): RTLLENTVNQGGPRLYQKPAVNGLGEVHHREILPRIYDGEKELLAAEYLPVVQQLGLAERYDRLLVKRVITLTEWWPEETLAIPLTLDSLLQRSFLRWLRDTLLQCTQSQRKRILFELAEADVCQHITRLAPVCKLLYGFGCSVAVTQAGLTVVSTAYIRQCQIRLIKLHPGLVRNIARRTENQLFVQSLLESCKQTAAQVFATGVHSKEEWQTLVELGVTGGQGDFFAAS
Experiment: streptavidin pull-down with anti-His immunoblot
Format: binding
Details: labelled compound (biotinylated c-di-GMP, 100 µM); 1.7 µM protein

Nc1nc2c(ncn2[C@@H]2O[C@@H]3COP(=O)(O)O[C@H]4[C@@H](O)[C@H](n5cnc6c(=O)[nH]c(N)nc65)O[C@@H]4COP(=O)(O)O[C@H]3[C@H]2O)c(=O)[nH]1 [c-di-GMP]
streptavidin pull-down with anti-His immunoblot: truncated version of CsrD that consisted of only the WT EAL domain exhibited binding

Source: PMC9276943 (Molecular Plant Pathology, 2022)
